System: TTR
Experiment: Liver editing in mice by NGS (percent editing)
Assay type: in vivo, mouse
Settings: CD-1 mice; 0.1 mg per kg; 7 days post dose; FIG. 7F-7G
Protocol: CD-1 female mice, ranging from 6 to 10 weeks of age were used in each study. Animals were weighed and grouped according to body weight for preparing dosing solutions based on group average weight. LNPs were dosed via the lateral tail vein in a volume of 0.2 mL per animal (approximately 10 mL per kilogram body weight). […] Body weight was measured at twenty-four hours post-administration, and animals were euthanized at various time points by exsanguination via cardiac puncture under isoflurane anesthesia. Blood was collected into serum separator tubes or into tubes containing buffered sodium citrate for plasma as described herein. […]
In brief, to quantitatively determine the efficiency of editing at the target location in the genome, genomic DNA was isolated and deep sequencing was utilized to identify the presence of insertions and deletions introduced by gene editing.
PCR primers were designed around the target site (e.g., TTR), and the genomic area of interest was amplified. […] The reads were aligned to the […] after eliminating those having low quality scores. The resulting files containing the reads were mapped to the reference genome (BAM files), where reads that overlapped the target region of interest were selected and the number of wild type reads versus the number of reads which contain an insertion, substitution, or deletion was calculated. […]

SMILES: CCCCC/C=C\C/C=C\CCCCCCCC(=O)OCC(COC(=O)CCC(OCCCCCCCC)OCCCCCCCC)COC(=O)OCCCN(CC)CC (stereo not shown) [Lipid A, (9Z,12Z)-3-((4,4-bis(octyloxy)butanoyl)oxy)-2-((((3-(diethylamino)propoxy)carbonyl)oxy)methyl) propyl octadeca-9,12-dienoate]
- potency (TTR knockdown and liver editing): highest potency

— patent publication US20230140670A1, “FORMULATIONS” (Intellia Therapeutics, Inc., priority 2017, published 2023)
